In ChEMBL document CHEMBL5390280, “Design, Synthesis, and Biological Evaluation of an Orally Bioavailable, Potent, and Selective ROCK2 Inhibitor for Psoriasis Treatment” (J Med Chem, 2023):
Activity calls are given as the source filed them. The rule behind the calls is not given here.

Tests used:
[1] = test system: Mus musculus; assay: Anti-inflammatory activity in Balb/c mouse model of IMQ-induced skin inflammation assessed as decrease in Ki67+ cells in epidermis of dorsal skin at 80 mg/kg, po administered daily for 7 days by IHC analysis; format: functional, organism-based; conditions: time 7.0 day
[2] = Toxicity in Balb/c mouse model of IMQ-induced skin inflammation assessed as reduction in spleen index administered orally daily for 7 days; format: tissue-based; conditions: in vivo, po, 168 h, dose 40-80 mg/kg, time 7 day
[3] = test system: Mus musculus; assay: Anti-inflammatory activity in Balb/c mouse model of IMQ-induced skin inflammation assessed as decrease in serum IL-17F level at 40 mg/kg, po administered daily for 7 days by IHC analysis; format: functional, organism-based; conditions: time 7.0 day
[4] = Oral bioavailability in Balb/c mouse at 40 mg/kg measured for 0.08 to 24 hrs by LC-MS/MS analysis; format: ADME, organism-based; conditions: in vivo, time 0.08-24 hrs
[5] = test system: Mus musculus; assay: Anti-inflammatory activity in Balb/c mouse model of IMQ-induced skin inflammation assessed as reduction in skin scales at 20 to 80 mg/kg, po administered daily for 7 days; format: functional, organism-based; conditions: dose 20-80 mg/kg, time 7.0 day
[6] = test system: HaCaT; assay: Anti-psoriasis effect in KGF-stimulated human HaCaT cells assessed as decrease in MMP-2 level at 2 to 5 uM incubated for 24 hrs by Western blot analysis; format: functional, cell-based; conditions: dose 2-5 µM
[7] = test system: Mus musculus; assay: Anti-inflammatory activity in Balb/c mouse model of IMQ-induced skin inflammation assessed as decrease in IL-22 mRNA level in dorsal skin at 80 mg/kg, po administered daily for 7 days by RT-qPCR analysis; format: functional, organism-based; conditions: time 7.0 day
[8] = Chemical stability of compound in PBS at pH 7.4 assessed as compound remaining measured after 10 days; format: physicochemical; conditions: time 10 day, read-out: Stability
[9] = test system: Mus musculus; assay: Anti-inflammatory activity in Balb/c mouse model of IMQ-induced skin inflammation assessed as decrease in IL-23 mRNA level in dorsal skin at 80 mg/kg, po administered daily for 7 days by RT-qPCR analysis; format: functional, organism-based; conditions: time 7.0 day
[10] = test system: HaCaT; assay: Anti-psoriasis effect in KGF-stimulated human HaCaT cells assessed as decrease in fibronectin level at 2 to 5 uM incubated for 24 hrs by Western blot analysis; format: functional, cell-based; conditions: dose 2-5 µM
[11] = Volume of distribution at steady state in Balb/c mouse at 10 mg/kg, iv measured for 0.08 to 24 hrs by LC-MS/MS analysis; format: ADME, organism-based; conditions: in vivo, time 0.08-24 hrs, read-out: Vdss
[12] = Toxicity in Balb/c mouse model of IMQ-induced skin inflammation assessed as body weight loss at 80 mg/kg, po administered daily for 7 days; format: organism-based; conditions: in vivo, 168 h, time 7 day
[13] = test system: Mus musculus; assay: Anti-inflammatory activity in Balb/c mouse model of IMQ-induced skin inflammation assessed as decrease in IL-17A mRNA level in dorsal skin at 20 to 40 mg/kg, po administered daily for 7 days by RT-qPCR analysis; format: functional, organism-based; conditions: dose 20-40 mg/kg, time 7.0 day
[14] = Cmax in Balb/c mouse at 40 mg/kg, po measured for 0.08 to 24 hrs by LC-MS/MS analysis; format: ADME, organism-based; design: time lower 0.08 hrs, dose 40 mg/kg, time upper 24 hrs, route po; conditions: in vivo

bioavailability [4]: 7.14%
remaining at 240 h [8]: 100%
Vd [11]: 8.63 L/kg
Cmax [14]: 226 ng/mL
SMILES: Cc1cc(=O)n(-c2cccc(CN[C@H]3CCC[C@H](Nc4ccc5[nH]ncc5c4)C3)c2)cc1F
Activity [1]: Active
Activity [2]: Dose-Dependent Effect
Activity [3]: Active
Activity [5]: Active
Activity [6]: Active
Activity [7]: Active
Activity [9]: Active
Activity [10]: Active
Activity [12]: Non-Toxic
Activity [13]: Active
